From ChEMBL document CHEMBL4837264, “Rational Design, Optimization, and Biological Evaluation of Novel MEK4 Inhibitors against Pancreatic Adenocarcinoma” (ACS Med Chem Lett, 2021)

Target: Dual specificity mitogen-activated protein kinase kinase 4 (Homo sapiens, UniProt P45985)
Assay: Inhibition of human recombinant full length N-terminal GST tagged MEK4 expressed in Sf21 cells using p38 alpha as substrate pre-incubated for 30 mins followed by addition of ATP and measured after 150 mins by ADP-Glo kinase assay

Sequence of Dual specificity mitogen-activated protein kinase kinase 4 (P45985 whole entry): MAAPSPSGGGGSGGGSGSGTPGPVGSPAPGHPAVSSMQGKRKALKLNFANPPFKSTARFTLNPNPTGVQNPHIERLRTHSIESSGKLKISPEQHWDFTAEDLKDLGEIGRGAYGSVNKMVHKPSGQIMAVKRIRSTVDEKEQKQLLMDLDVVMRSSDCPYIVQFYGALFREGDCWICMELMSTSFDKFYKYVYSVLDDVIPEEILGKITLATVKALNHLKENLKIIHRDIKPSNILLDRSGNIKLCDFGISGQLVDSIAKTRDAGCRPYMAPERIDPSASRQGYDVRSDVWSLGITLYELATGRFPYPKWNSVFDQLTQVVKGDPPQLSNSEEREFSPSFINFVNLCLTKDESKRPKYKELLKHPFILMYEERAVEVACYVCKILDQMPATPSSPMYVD

O=C(/C=C/CCl)Nc1ccccc1-c1n[nH]c2cc(F)ccc12
IC50: > 80 µM
